This is an account of results in BindingDB's records for doi:10.1021/acs.jmedchem.0c01153 (Tokyo Medical and Dental University (Tmdu), 2021).

Experiment [1] is described as follows: Inhibition of HIV1 KP-5mvcR gp120 interaction with CD4 in human TZM-bl cells assessed as decrease in viral entry by MTT assay. (Formazan colour is commonly taken as a measure of viable cells.)
The nature of experiment [2]: Inhibition of HIV1 KP-5mp1 gp120 interaction with CD4 human TZM-bl cells assessed as decrease in viral entry by MTT assay.

For `N=C(N)NCCCCCCCCCCC(=O)NCCN1CCC(NC(=O)C(=O)Nc2ccc(Cl)cc2)CC12CCCCC2` (stereo not given), the IC50 in experiment [1] was determined as 720 nM; in experiment [2], 43000 nM. On the same counts, the results for `N=C(N)NCCCCC(=O)NCCN1CCC(NC(=O)C(=O)Nc2ccc(Cl)cc2)CC12CCCCC2` (stereo not given) are 120 nM and 2100 nM. For `N=C(N)NCCCC[C@H](NC(=N)N)C(=O)NCCN1CCC(NC(=O)C(=O)Nc2ccc(Cl)cc2)CC12CCCCC2` (stereo not given in full), in that order: 290 nM and 3900 nM.

Take `N=C(N)NCC(=O)NCCCC[C@H](NC(=N)N)C(=O)NCCN1CCC(NC(=O)C(=O)Nc2ccc(Cl)cc2)CC12CCCCC2` (stereo not given in full): the IC50 in experiment [1] was determined as 230 nM; in experiment [2] it was 4400 nM. On the same counts, the results for `N=C(N)NCCCCC(=O)NCCCC[C@H](NC(=N)N)C(=O)NCCN1CCC(NC(=O)C(=O)Nc2ccc(Cl)cc2)CC12CCCCC2` (stereo not given in full) are 330 nM and 13000 nM. In the case of `N=C(N)NCCCCCCCC(=O)NCCCC[C@H](NC(=N)N)C(=O)NCCN1CCC(NC(=O)C(=O)Nc2ccc(Cl)cc2)CC12CCCCC2` (stereo not given in full), the IC50 in experiment [1] came to 420 nM; in experiment [2], 2900 nM. On the same counts, the results for `N=C(N)NCCCCCCCCCCC(=O)NCCCC[C@H](NC(=N)N)C(=O)NCCN1CCC(NC(=O)C(=O)Nc2ccc(Cl)cc2)CC12CCCCC2` (stereo not given in full) are 880 nM and 4800 nM. In the case of `CCCCCCCCCCCCCCCCNC(=O)CCC(=O)OC(CCCNS(=O)(=O)c1ccc([N+](=O)[O-])cc1)C(=O)NCCN1CCC(NC(=O)C(=O)Nc2ccc(Cl)cc2)CC12CCCCC2` (stereo not given), the IC50 in experiment [1] came to 3400 nM. Regarding `COCCOCCOCCOCCOCCNC(=O)CCC(=O)OC(CCCNS(=O)(=O)c1ccc([N+](=O)[O-])cc1)C(=O)NCCN1CCC(NC(=O)C(=O)Nc2ccc(Cl)cc2)CC12CCCCC2` (stereo not given), the IC50 in experiment [1] came to 570 nM. Same read-out and setting: next, `CCCCCCCCCCCCCCCCNC(=O)CCC(=O)OC(CCCN)C(=O)NCCN1CCC(NC(=O)C(=O)Nc2ccc(Cl)cc2)CC12CCCCC2` (stereo not given): 250 nM; `COCCOCCOCCOCCOCCNC(=O)CCC(=O)OC(CCCN)C(=O)NCCN1CCC(NC(=O)C(=O)Nc2ccc(Cl)cc2)CC12CCCCC2` (stereo not given): 46 nM. Turning to `CCCCCCCCCCCCCCCCNC(=O)CCC(=O)OC(CCCNC(=N)N)C(=O)NCCN1CCC(NC(=O)C(=O)Nc2ccc(Cl)cc2)CC12CCCCC2` (stereo not given), the IC50 in experiment [1] turned out to be 1200 nM.

Turning to `COCCOCCOCCOCCOCCNC(=O)CCC(=O)OC(CCCNC(=N)N)C(=O)NCCN1CCC(NC(=O)C(=O)Nc2ccc(Cl)cc2)CC12CCCCC2` (stereo not given), the IC50 in experiment [1] is 17 nM. The same measure, in the same setting: for `COCCOCCOCCOCCOCCNC(=O)CCC(=O)N[C@@H](CCCNC(=N)N)C(=O)NCCN1CCC(NC(=O)C(=O)Nc2ccc(Cl)cc2)CC12CCCCC2` (stereo not given in full) the value was 130 nM. `COCCOCCOCCOCCOCCOCCOCCOCCOCCOCCOCCOCCNC(=O)CCC(=O)N[C@@H](CCCNC(=N)N)C(=O)NCCN1CCC(NC(=O)C(=O)Nc2ccc(Cl)cc2)CC12CCCCC2` (stereo not given in full): the IC50 in experiment [1] is below 100 nM. Still for that read-out and setting: for `COCCOCCOCCOCCOCCOCCOCCOCCOCCOCCOCCOCCOCCOCCOCCOCCOCCOCCOCCOCCOCCOCCOCCOCCNC(=O)CCC(=O)N[C@@H](CCCNC(=N)N)C(=O)NCCN1CCC(NC(=O)C(=O)Nc2ccc(Cl)cc2)CC12CCCCC2` (stereo not given in full) the value was below 100 nM.

With `N=C(N)NCCCCCCCC(=O)NCCN1CCC(NC(=O)C(=O)Nc2ccc(Cl)cc2)CC12CCCCC2` (stereo not given), the IC50 in experiment [2] was above 100000 nM.

Turning to `CC1(C)CC(NC(=O)C(=O)Nc2ccc(Cl)cc2)CC(C)(C)N1` [N-(4-chlorophenyl)-N'-(2,2,6,6-tetramethylpiperidin-4-yl)-oxalamide], the IC50 in experiment [2] stood at 6900 nM.

As a reminder, the IC50 is the concentration that inhibits the measured activity by half.
